From US8518952B2, “6 substituted 2-heterocyclylamino pyrazine compounds as CHK-1 inhibitors” (Pfizer Inc., priority 2008, dated 2013)
Read-outs that look alike come from different tables or passages of the source.

Experiments:
HeLa cells = test: Histone H3 (Ser10) phosphorylation ELISA, abrogation of camptothecin-induced G2 arrest (CHK-1 cellular assay); assay type: cell-based
Protocol: The Histone H3 phosphorylation ELISA assay detects cells entering mitosis and represents the primary in vitro cell-based assay used to measure the cellular potency of compounds in abrogating the G2 check point induced by DNA damage in HeLa cells or MiaPaCa cells. The candidate substances were assayed for potency in their ability to inhibit camptothecin-induced G2 arrest, as measured by an increase in Histone H3 phosphorylation on Ser10, a marker of entry into mitosis.
Tissue culture plates were seeded with HeLa cells or MiaPaCa Cells and allowed to attach overnight. The cells were then treated with camptothecin to induce DNA damage for 8 hrs. Candidate substances or diluent were then added in the presence of nocodozole for 16 hours. […] The fresh whole cell lysates were then thawed and added to the ELISA plate with shaking for 3 hours. Between all subsequent steps plates were washed 4 times with PBST. Biotinylated phospho Histone H3 (ser10) detection antibody was added for 1 hour, followed by addition of horseradish peroxidase-linked streptavidin secondary antibody for 1 hour. Color development of the antibody was performed with addition of TMB substrate and incubation for 2 minutes on a plate shaker. […] EC50 values were calculated by sigmoid curve fitting using a four-parameter analysis.
(§1) Under the “Ki” column, data entries in the format of “%” are percent inhibition data where no Ki data is available. Data entry under the “EC50” column with an * are data obtained using Mia Paca-2 cells rather than HeLa cells. Data is not available where noted as n/a.

CHK1 (kinase domain) = molecular target: T1, CHK1 (kinase domain) (Homo sapiens, UniProt O14757); test: CHK1 Ki determination, spectrophotometric coupled (pyruvate kinase/lactate dehydrogenase) assay; assay type: biochemical; settings: CHK-1 kinase domain; for Ki: 150 uM ATP, 125 uM Syntide 2; for percent inhibition (where no Ki data is available): inhibitor concentration not given
T1 construct: a solution containing 1 nM of CHK1 (kinase domain)
T1 sequence (O14757 9-265 limits assumed): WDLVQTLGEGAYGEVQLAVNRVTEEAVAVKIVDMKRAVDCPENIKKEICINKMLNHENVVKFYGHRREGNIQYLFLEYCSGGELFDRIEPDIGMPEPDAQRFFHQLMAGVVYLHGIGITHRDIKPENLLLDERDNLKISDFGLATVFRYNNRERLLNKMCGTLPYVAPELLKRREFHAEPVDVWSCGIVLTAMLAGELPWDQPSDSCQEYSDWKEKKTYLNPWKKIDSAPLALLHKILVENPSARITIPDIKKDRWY
Protocol: After 15 min pre-incubation, the enzymatic reaction was initiated by the simultaneous addition of Syntide 2 peptide (125 uM, final concentration) and ATP (150 uM, final concentration). The kinase-catalyzed production of ADP from ATP that accompanied phosphoryl transfer to the substrate Syntide 2 was coupled to the oxidation of NADH through the activities of pyruvate kinase and lactate dehydrogenase. NADH conversion to NAD^+ was monitored by the decrease in absorbance at 340 nm (ε=6.22 cm^−1 mM^−1) using a microplate reader from Molecular Devices Spectormax Plus (Sunnyvale, Calif.) or BMG LABTECH Inc (Offenburg, Germany).
The inhibition of CHK1 was analyzed by fitting the data to the following equation to determine Kiapp:
[formula] where [E]o and [I]o are the active enzyme and inhibitor concentration, respectively; Ki is the inhibition binding constant and Km the Michaelis-Menten constant for ATP; Vi and Vo are the rates of substrate oxidation in the presence of and in the absence of inhibitor, respectively. EC50 Determination (Cellular Assay)
as §1

[1] = Homo sapiens, HeLa, HeLa cells, camptothecin 8 hrs, then compound with nocodozole 16 hours, read-out: EC50
[2] = HeLa cells, camptothecin 8 hrs, then compound with nocodozole 16 hours, read-out: EC50

Compound	EC50 (HeLa cells; [1]) [nM]	Ki (CHK1 (kinase domain)) [nM]	percent inhibition (where no Ki data is available) (CHK1 (kinase domain))	EC50 (HeLa cells; [2]) [nM]	EC50 (HeLa cells; Homo sapiens, HeLa) [nM]
CCc1cn2c(-c3cncc(N[C@H]4CCCN[C@@H]4C)n3)cnc2s1 [Example 174, 6-(2-ethylimidazo[2,1-b][1,3]thiazol-5-yl)-N-[(2R,3S)-2-methylpiperidin-3-yl]pyrazin-2-amine]	≥ 10000	16.9	–	–	–
C[C@@H]1CC[C@@H](Nc2cncc(-c3cnc4ccccn34)n2)CN1 [Example 31, 6-imidazo[1,2-a]pyridin-3-yl-N-[(3R,6R)-6-methylpiperidin-3-yl]pyrazin-2-amine]	183	27.3	–	–	–
FC1(F)CCNC[C@H]1Nc1cncc(-c2cnc3ccccn23)n1 [Example 248, N-[(3R)-4,4-difluoropiperidin-3-yl]-6-(imidazo[1,2-a]pyridin-3-yl)pyrazin-2-amine]	≥ 10000	45.3	–	–	–
C[C@@H]1NCCC[C@H]1Nc1cncc(-c2cnc3ccc(F)cn23)n1 [Example 168, 6-(6-fluoroimidazo[1,2-a]pyridin-3-yl)-N-[(2S,3R)-2-methylpiperidin-3-yl]pyrazin-2-amine]	≥ 10000	22.7	–	–	–
FC1(F)CCNCC1Nc1cncc(-c2cnc3ccccn23)n1 (stereo not shown) [Example 11, N-(4,4-difluoropiperidin-3-yl)-6-(imidazo[1,2-a]pyridin-3-yl)pyrazin-2-amine]	62.1	–	101%^	–	–
CCc1cn2c(-c3cncc(N[C@@H]4CCCN[C@@H]4C)n3)cnc2s1 [Example 166, 6-(2-ethylimidazo[2,1-b][1,3]thiazol-5-yl)-N-[(2R,3R)-2-methylpiperidin-3-yl]pyrazin-2-amine]	–	4.79	–	123	–
CCc1ccn2c(-c3cncc(N[C@@H]4CCCNC4)n3)cnc2c1 [Example 42, 6-(7-Ethylimidazo[1,2-a]pyridin-3-yl)-N-[(3R)-piperidin-3-yl]pyrazin-2-amine]	29.3	7	–	–	–
C[C@@H]1CNC[C@@H]1Nc1cncc(-c2cnc3ccccn23)n1 [Example 12, 6-Imidazo[1,2-a]pyridin-3-yl-N-[(3R,4R)-4-methylpyrrolidin-3-yl]pyrazin-2-amine]	68.4	27.5	–	–	–
c1ccn2ncc(-c3cncc(N[C@@H]4CCCNC4)n3)c2c1 [Example 6, N-[(3R)-piperidin-3-yl]-6-pyrazolo[1,5-a]pyridin-3-ylpyrazin-2-amine]	31.8	2.54	–	–	–
FC(F)[C@@H]1C[C@@H](Nc2cncc(-c3cnc4cc(C(F)(F)F)ccn34)n2)CN1 [Example 89, N-[(3R,5S)-5-(difluoromethyl)pyrrolidin-3-yl]-6-[7-(trifluoromethyl)imidazo[1,2-a]pyridin-3-yl]pyrazin-2-amine]	≥ 10000	261	–	–	–
c1cnn2c(-c3cncc(N[C@@H]4CCCNC4)n3)cnc2c1 [Example 60, 6-Imidazo[1,2-b]pyridazin-3-yl-N-[(3R)-piperidin-3-yl]pyrazin-2-amine]	8320	1000	–	–	–
CC(C)Oc1ccc2ncn(-c3cncc(N[C@@H]4CCNC4)n3)c2c1 [Example 15, 6-[6-(propan-2-yloxy)-1H-benzimidazol-1-yl]-N-[(3R)-pyrrolidin-3-yl]pyrazin-2-amine]	≥ 10000	–	43.5%^	–	–
Cc1cn2c(-c3cncc(N[C@H]4CCCN[C@@H]4C)n3)cnc2s1 [Example 134, 6-(2-methylimidazo[2,1-b][1,3]thiazol-5-yl)-N-[(2R,3S)-2-methylpiperidin-3-yl]pyrazin-2-amine]	≥ 10000	–	0%	–	–
CC(C)[C@@H]1CNC[C@@H]1Nc1cncc(-c2cnc3ccccn23)n1 [Example 194, 6-(imidazo[1,2-a]pyridin-3-yl)-N-[(3R,4R)-4-(propan-2-yl)pyrrolidin-3-yl]pyrazin-2-amine]	7.76	13.6	–	–	–
CC1(Nc2cncc(-c3cnc4ccccn34)n2)CCNC1 (stereo not shown) [Example 99, 6-imidazo[1,2-a]pyridin-3-yl-N-(3-methylpyrrolidin-3-yl)pyrazin-2-amine]	≥ 10000	28.4	–	–	–
C[C@H]1NCCC[C@H]1Nc1cncc(-c2cnc3ccc(F)cn23)n1 [Example 94, 6-(6-fluoroimidazo[1,2-a]pyridin-3-yl)-N-[(2R,3R)-2-methylpiperidin-3-yl]pyrazin-2-amine]	–	20.6	–	370	–
C[C@H]1NCCC[C@@H]1Nc1cncc(-c2cnc3ccccn23)n1 [Example 132, 6-imidazo[1,2-a]pyridin-3-yl-N-[(2R,3S)-2-methylpiperidin-3-yl]pyrazin-2-amine]	≥ 10000	–	18.3%^	–	–
FC(F)(F)CO[C@@H]1CNC[C@@H]1Nc1cncc(-c2cnc3ccccn23)n1 [Example 195, 6-(imidazo[1,2-a]pyridin-3-yl)-N-[(3S,4R)-4-(2,2,2-trifluoroethoxy)pyrrolidin-3-yl]pyrazin-2-amine]	78.5	73.4	–	–	–
COc1ccn2c(-c3cncc(N[C@@H]4C[C@@H]5CN[C@H]4C5)n3)cnc2c1 [Example 124, (1S,4R,6R)-N-[6-(7-methoxyimidazo[1,2-a]pyridin-3-yl)pyrazin-2-yl]-2-azabicyclo[2.2.1]heptan-6-amine]	≥ 10000	2.29	–	–	–
Clc1ccc2c(-c3cncc(N[C@@H]4CCNC4)n3)cnn2c1 [Example 113, 6-(6-chloropyrazolo[1,5-a]pyridin-3-yl)-N-[(3R)-pyrrolidin-3-yl]pyrazin-2-amine]	103	–	95.5%^	–	–
CC(Oc1ccn2c(-c3cncc(N[C@@H]4CCNC4)n3)cnc2c1)C(F)(F)F (stereo partly drawn) [Example 136, N-[(3R)-pyrrolidin-3-yl]-6-[7-(2,2,2-trifluoro-1-methylethoxy)imidazo[1,2-a]pyridin-3-yl]pyrazin-2-amine]	966	52	–	–	–
F[C@H]1CNC[C@@H]1Nc1cncc(-c2cnn3ccccc23)n1 [Example 66, N-[(3S,4S)-4-fluoropyrrolidin-3-yl]-6-(pyrazolo[1,5-a]pyridin-3-yl)pyrazin-2-amine]	344	12.7	–	–	–
CCOc1ccc2ncn(-c3cncc(N[C@@H]4CCCNC4)n3)c2c1 [Example 149, 6-(6-ethoxy-1H-benzimidazol-1-yl)-N-[(3R)-piperidin-3-yl]pyrazin-2-amine]	≥ 10000	6.77	–	–	–
c1ccn2c(-c3cncc(N[C@H]4CCNC4)n3)cnc2c1 [Example 48, 6-Imidazo[1,2-a]pyridin-3-yl-N-[(3S)-pyrrolidin-3-yl]pyrazin-2-amine]	600	165	–	–	–
c1ccn2c(-c3cncc(N[C@@H]4CCCNC4)n3)cnc2c1 [Example 2, 6-Imidazo[1,2-a]pyridin-3-yl-N-[(3R)-piperidin-3-yl]pyrazin-2-amine]	–	3.24	–	–	34.3
CCc1cn2c(-c3cncc(N[C@@H]4CCCNC4)n3)cnc2s1 [Example 107, 6-(2-ethylimidazo[2,1-b][1,3]thiazol-5-yl)-N-[(3R)-piperidin-3-yl]pyrazin-2-amine]	31.6	2.85	–	–	–
C[C@@H]1CNC[C@@H]1Nc1cncc(-c2cnn3cc(Cl)ccc23)n1 [Example 116, 6-(6-chloropyrazolo[1,5-a]pyridin-3-yl)-N-[(3R,4R)-4-methylpyrrolidin-3-yl]pyrazin-2-amine]	20.3	1.97	–	–	–
Cc1cn2c(-c3cncc(N[C@@H]4CCCN[C@H]4C)n3)cnc2s1 [Example 176, 6-(2-methylimidazo[2,1-b][1,3]thiazol-5-yl)-N-[(2S,3R)-2-methylpiperidin-3-yl]pyrazin-2-amine]	–	9.54	–	11.2	–
CC(Oc1ccn2c(-c3cncc(N[C@@H]4CCCNC4)n3)cnc2c1)C(F)(F)F (stereo partly drawn) [Example 118, N-[(3R)-piperidin-3-yl]-6-[7-(2,2,2-trifluoro-1-methylethoxy)imidazo[1,2-a]pyridin-3-yl]pyrazin-2-amine]	1110	5.27	–	–	–
